Assay results taken from ChEMBL document CHEMBL1201862, “PubChem BioAssay data set” (2004).
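Briefly, cells in 96-well plates were exposed to five compound concentrations for 48 h, and endpoints were estimated by linear interpolation. GI50 = concentration required for 50% inhibition of growth.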 Active and inactive are the calls of the source. Cut-off read from the data, not from the text of the source: active = GI50 up to about 1.1 µM and inactive = higher.

Columns and labels:
Assay in all cases: DTP human tumour cell line panel, 48 h
[1] = tested on: DU-145
[2] = tested on: MOLT-4
[3] = tested on: SF-295
[4] = tested on: NCI/ADR-RES
[5] = tested on: SW-620
[6] = tested on: OVCAR-3
[7] = tested on: HOP-62
[8] = tested on: SNB-75
[9] = tested on: SF-539
[10] = tested on: KM12
[11] = tested on: UACC-257
[12] = tested on: U-251
[13] = tested on: CCRF-CEM
[14] = tested on: CAKI-1
[15] = tested on: K562
[16] = tested on: TK-10
[17] = tested on: MDA-MB-231
[18] = tested on: SR
[19] = tested on: PC-3
[20] = tested on: Hs-578T

SMILES | GI50 [1] | GI50 [2] | GI50 [3] | GI50 [4] | GI50 [5] | GI50 [6] | GI50 [7] | GI50 [8] | GI50 [9] | GI50 [10] | GI50 [11] | GI50 [12] | GI50 [13] | GI50 [14] | GI50 [15] | GI50 [16] | GI50 [17] | GI50 [18] | GI50 [19] | GI50 [20]
CC1CSc2nc3nc(S)nc-3c(O)n2C1 (stereo not drawn) | > 100 µM (inactive) | > 100 µM (inactive) | > 100 µM (inactive) | > 100 µM (inactive) | > 100 µM (inactive) | > 100 µM (inactive) | > 100 µM (inactive) | > 100 µM (inactive) | > 100 µM (inactive) | > 100 µM (inactive) | > 100 µM (inactive) | > 100 µM (inactive) | > 100 µM (inactive) | > 100 µM (inactive) | > 100 µM (inactive) | > 100 µM (inactive) | > 100 µM (inactive) |  |  | 
COc1cc(S(=O)(=O)Nc2ccc(-c3csc(N4C(=O)C(Cl)C4c4cccc(Oc5ccccc5)c4)n3)cc2)ccc1Cl (stereo not drawn) | 21.7 µM (inactive) | 15.3 µM (inactive) | > 100 µM (inactive) | > 100 µM (inactive) | 36.1 µM (inactive) | 58.5 µM (inactive) | 38.3 µM (inactive) | 22.3 µM (inactive) | 16.1 µM (inactive) | 26.9 µM (inactive) | 39.6 µM (inactive) |  | 3.31 µM (inactive) | 20.2 µM (inactive) | 27.9 µM (inactive) |  |  | 3.13 µM (inactive) | 17.1 µM (inactive) | > 100 µM (inactive)
CSc1ncnc2c1ncn2CCC(=O)OC(C)(C)C | > 100 µM (inactive) | > 100 µM (inactive) | > 100 µM (inactive) | > 100 µM (inactive) | > 100 µM (inactive) | > 100 µM (inactive) | > 100 µM (inactive) | > 100 µM (inactive) | > 100 µM (inactive) | > 100 µM (inactive) | > 100 µM (inactive) |  | > 100 µM (inactive) | > 100 µM (inactive) | > 100 µM (inactive) | > 100 µM (inactive) | > 100 µM (inactive) | > 100 µM (inactive) | > 100 µM (inactive) | 
N#CCCC1(CCC#N)CCCCCCCCC(CCC#N)(CCC#N)C(O)C1O (stereo not drawn) | > 100 µM (inactive) |  | > 100 µM (inactive) | > 100 µM (inactive) | > 100 µM (inactive) | > 100 µM (inactive) | 61.7 µM (inactive) | > 100 µM (inactive) | 29.8 µM (inactive) | > 100 µM (inactive) | > 100 µM (inactive) | 46.7 µM (inactive) |  | > 100 µM (inactive) | > 100 µM (inactive) | 74.8 µM (inactive) |  |  | > 100 µM (inactive) | 52 µM (inactive)
CSc1nc(SC)c2c(C(N)=S)n[nH]c2n1 |  | 27 µM (inactive) | 6 µM (inactive) |  | 37 µM (inactive) | 22.1 µM (inactive) | 23.2 µM (inactive) | 25.9 µM (inactive) | 23.1 µM (inactive) | 37.4 µM (inactive) | 21.8 µM (inactive) | 23 µM (inactive) | 26.2 µM (inactive) | 21.1 µM (inactive) | 26.2 µM (inactive) | 23.3 µM (inactive) |  | 30.7 µM (inactive) |  | 
COc1ccc(N[S+]([O-])CCc2ccccc2)cc1 (stereo not drawn) | > 100 µM (inactive) | > 100 µM (inactive) | > 100 µM (inactive) | 58.1 µM (inactive) | > 100 µM (inactive) | > 100 µM (inactive) | > 100 µM (inactive) | > 100 µM (inactive) | > 100 µM (inactive) | > 100 µM (inactive) | > 100 µM (inactive) | > 100 µM (inactive) | > 100 µM (inactive) | > 100 µM (inactive) | 73.3 µM (inactive) | > 100 µM (inactive) | > 100 µM (inactive) | > 100 µM (inactive) |  | 23.4 µM (inactive)
COc1cc2c(c3c1c(=O)c1ccccc1n3C)C=CC(C)(C)O2 [ACRONINE] |  | 16.2 µM (inactive) | 32.3 µM (inactive) |  | > 100 µM (inactive) | > 100 µM (inactive) | 46.9 µM (inactive) | 82.6 µM (inactive) | 37.8 µM (inactive) | > 100 µM (inactive) | > 100 µM (inactive) | > 100 µM (inactive) | 79.1 µM (inactive) | > 100 µM (inactive) | 52.1 µM (inactive) | > 100 µM (inactive) |  | 0.885 µM (active) |  | 
O=C(O)C1C2C=CC(O2)C1C(=O)NCc1ccncc1 (stereo not drawn) | > 100 µM (inactive) |  | > 100 µM (inactive) |  | > 100 µM (inactive) | 33.7 µM (inactive) | > 100 µM (inactive) | > 100 µM (inactive) | > 100 µM (inactive) | > 100 µM (inactive) | > 100 µM (inactive) | > 100 µM (inactive) | > 100 µM (inactive) | > 100 µM (inactive) | > 100 µM (inactive) | > 100 µM (inactive) | > 100 µM (inactive) | > 100 µM (inactive) | > 100 µM (inactive) | > 100 µM (inactive)
CC(C)=CCC(O)[C@](C)(O)[C@H]1[C@H](O)C[C@@]2(C)[C@@H]3CCc4cc(O)c(OC5OC(CO)C(O)C(O)C5O)cc4C3(C)C(=O)C[C@]12C (stereo partly drawn) | > 100 µM (inactive) | > 100 µM (inactive) | > 100 µM (inactive) | > 100 µM (inactive) | > 100 µM (inactive) | > 100 µM (inactive) | > 100 µM (inactive) | > 100 µM (inactive) | > 100 µM (inactive) | > 100 µM (inactive) | > 100 µM (inactive) | > 100 µM (inactive) | > 100 µM (inactive) | > 100 µM (inactive) | > 100 µM (inactive) | > 100 µM (inactive) | > 100 µM (inactive) | > 100 µM (inactive) | > 100 µM (inactive) | 
COc1ccc(-c2c(C(C)=O)c(C)n(C3OC(COC(C)=O)C(OC(C)=O)C(OC(C)=O)C3OC(C)=O)c(=S)c2C#N)cc1 (stereo not drawn) | > 100 µM (inactive) | 43 µM (inactive) | 69 µM (inactive) | 71 µM (inactive) | 72.8 µM (inactive) | > 100 µM (inactive) | > 100 µM (inactive) | 75.5 µM (inactive) | > 100 µM (inactive) | > 100 µM (inactive) | > 100 µM (inactive) | > 100 µM (inactive) | 42.3 µM (inactive) | 28.9 µM (inactive) | 68.5 µM (inactive) | > 100 µM (inactive) | 29.1 µM (inactive) | > 100 µM (inactive) | 45.2 µM (inactive) | 
COCc1cc2c(cc1/C(=C/[N+](=O)[O-])CS(=O)(=O)c1ccccc1)OCO2 | > 100 µM (inactive) | > 100 µM (inactive) | > 100 µM (inactive) | > 100 µM (inactive) | > 100 µM (inactive) | > 100 µM (inactive) | > 100 µM (inactive) | > 100 µM (inactive) | > 100 µM (inactive) |  | > 100 µM (inactive) | > 100 µM (inactive) | > 100 µM (inactive) | > 100 µM (inactive) | > 100 µM (inactive) | > 100 µM (inactive) |  | > 100 µM (inactive) |  | > 100 µM (inactive)
Cc1ccc(NC(=O)CC2C(=O)Nc3ccccc3[S+]2[O-])c(C)c1 (stereo not drawn) |  | 6.28 µM (inactive) | 12.8 µM (inactive) |  | 5.81 µM (inactive) | 9.51 µM (inactive) | 16.4 µM (inactive) | 11.7 µM (inactive) | 12.9 µM (inactive) | 4.6 µM (inactive) | 50.8 µM (inactive) | 10.8 µM (inactive) | 11.5 µM (inactive) | 11 µM (inactive) | 4.03 µM (inactive) | 22.4 µM (inactive) |  | 2.9 µM (inactive) |  | 
COc1ccc(-c2nnc(CCCCCCCCc3nnc(-c4ccc(OC)cc4)o3)o2)cc1 | > 100 µM (inactive) | > 100 µM (inactive) | 50.4 µM (inactive) | > 100 µM (inactive) | > 100 µM (inactive) | > 100 µM (inactive) | 25.4 µM (inactive) | 27 µM (inactive) | 63.7 µM (inactive) | > 100 µM (inactive) | > 100 µM (inactive) | 27.6 µM (inactive) | > 100 µM (inactive) | > 100 µM (inactive) | > 100 µM (inactive) | 65.2 µM (inactive) | 18.3 µM (inactive) |  | > 100 µM (inactive) | 
CCN1CCC(O)(/C=C/c2ccc(OC)cc2)C(C(=O)/C=C/c2ccc(OC)cc2)C1 (stereo not drawn) | 10.9 µM (inactive) | 2.72 µM (inactive) | 11.8 µM (inactive) | 6.15 µM (inactive) | 4.53 µM (inactive) | 14.1 µM (inactive) | 18.2 µM (inactive) |  | 13.7 µM (inactive) | 7.8 µM (inactive) | 11.1 µM (inactive) | 6.34 µM (inactive) | 1.34 µM (inactive) |  | 2.75 µM (inactive) | 13.8 µM (inactive) | 5.02 µM (inactive) | 3.46 µM (inactive) | 11.3 µM (inactive) | 
COc1ccc(C2CC(c3cc(C)ccc3O)=NC(N)=N2)cc1 (stereo not drawn) |  | > 100 µM (inactive) | > 100 µM (inactive) |  | > 100 µM (inactive) | > 100 µM (inactive) | > 100 µM (inactive) | > 100 µM (inactive) | > 100 µM (inactive) | > 100 µM (inactive) | > 100 µM (inactive) | > 100 µM (inactive) | > 100 µM (inactive) | > 100 µM (inactive) | > 100 µM (inactive) | > 100 µM (inactive) |  | > 100 µM (inactive) |  | 
COC(=O)c1ccc(-c2nc(C#N)c(N)o2)cc1 | > 100 µM (inactive) | > 100 µM (inactive) | > 100 µM (inactive) |  | > 100 µM (inactive) | > 100 µM (inactive) | 67.9 µM (inactive) |  | > 100 µM (inactive) | > 100 µM (inactive) | > 100 µM (inactive) | 31.6 µM (inactive) | > 100 µM (inactive) | > 100 µM (inactive) | > 100 µM (inactive) | > 100 µM (inactive) | 27.1 µM (inactive) | > 100 µM (inactive) | > 100 µM (inactive) | 32.2 µM (inactive)
